Measured values taken from patent publication US12410179B2, “Modulators of TNF alpha activity and uses thereof” (RayThera, Inc., priority 2023, dated 2025).
Where two headings read alike, the source gives them in different places.

Biological target: TNFα (Homo sapiens, UniProt P01375)
Assay: HEK-Blue hTNFα reporter assay
Format: cell-based
Set-up: purchased R&D biosystem (R&D Systems) 210-TA-020/CF
Conditions: HEK-Blue hTNFα reporter cells; for Emax: read-out: TNFα reporter, Emax
Source text: Stimulation of HEK293 cells by TNFα leads to activation of the NF-κB pathway. The potency of compounds was examined in HEK-Blue™ hTNFα reporter cells (Invivogen, Cat #hkb-tnfdmyd). HEK-Blue™ TNFα cells were generated by stable transfection of HEK293 cell line with a SEAP reporter gene under the control of the […] minimal promoter fused to NF-κB binding sites. Stimulation of HEK-Blue™ TNFα cells with TNFα triggers the activation of the NF-κB-inducible promoter and the production of SEAP. Levels of SEAP in the supernatant can be easily determined using QUANTI-Blue™ Solution (Invivogen, cat #rep-qbs) by reading the OD at 620-655 nm.
HEK-Blue™ TNFα cells were cultured in DMEM supplemented with 10% FBS, 100p/mL penicillin, 100 μg/mL streptomycin, 100 μg/mL normocin, 1 μg/mL puromycin, and 100 μg/mL zeocin. The culture was maintained in culture incubator with 5% CO2 at 37° C. When used for assay, the cells were gently rinsed twice with pre-warmed phosphate buffered saline (PBS) and detached in presence of PBS by tapping the flask or by using a cell scraper. The cells were spun to remove PBS and resuspended in fresh, pre-warmed test medium (DMEM supplemented with 10% FBS, 100p/mL penicillin, and 100 μg/mL streptomycin). A serial dilution of work solution of tested compound was made in DMSO with 1000× of final concentration, and 40 nL of compound DMSO solution was transferred into 384-well plates (Corning 3764) by Echo, and incubated with 10 μL of recombinant hTNFα (R&D biosystem, Cat #210-TA-020/CF) for 1 h at 37° C. The compound/hTNFα mixture well received 30 μL HEK-Blue™ TNFα cell suspension at 10000 cells/well, and then incubated at 37° C. with 5% CO2 for 24 h. The final concentration of hTNFα is […]. After incubation, 5 μL of induced cell supernatant was transferred to a new 384-well plate well (Coring 3764) to mix with 45 μL of QUANTI-Blue Solution. After 1 h incubation at 37° C., the plate was read using a spectrophotometer at 620 nm.
The percentage of inhibition was calculated by the following formula: % inhibition=(positive control−Sample)/(positive control−negative control)*100 • Positive control: OD620 reading of cells with hTNFα stimulation. • Negative control: OD620 reading of cells without hTNFα stimulation. • Sample: OD620 reading of cells with compound at specific concentration and hTNFα stimulation
The % inhibition was plotted against compound concentration in logarithmic scale and the IC50 was rendered using 4-parameter nonlinear regression (GraphPad Prism).

[1] = SEAP readout, read-out: IC50 Range

TNFα, sequence (P01375 77-233 limits assumed): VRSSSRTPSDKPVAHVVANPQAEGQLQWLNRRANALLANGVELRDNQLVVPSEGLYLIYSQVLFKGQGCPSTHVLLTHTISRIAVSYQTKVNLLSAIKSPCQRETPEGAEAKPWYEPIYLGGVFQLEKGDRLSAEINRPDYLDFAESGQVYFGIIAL

Compound | IC50 [1] [µM] | Emax [%] | IC50 (read-out: TNFα reporter, IC50) [µM]
CN1C(=O)c2cccc(OC(F)F)c2[C@H]2C[C@@H]1c1nn3ccc(C4=CCC(C(C)(C)O)OC4)cc3c12 (stereo in doubt) [Example 318, (7R,14S)-1-(difluoromethoxy)-12-((R)-6-(2-hydroxypropan-2-yl)-5,6-dihydro-2H-pyran-3-yl)-6-methyl-6,7-dihydro-7,14-methanobenzo[c]pyrido[1′,2′:1,5]pyrazolo[4,3-f]azocin-5 (14H)-one] | < 0.025 |  | 
CN1C(=O)c2cccc(OC(F)F)c2[C@H]2C[C@@H]1c1nn3ccc(C4=CCC(C(C)(C)O)OC4)cc3c12 (stereo in doubt) [Example 319, (7R,14S)-1-(difluoromethoxy)-12-((S)-6-(2-hydroxypropan-2-yl)-5,6-dihydro-2H-pyran-3-yl)-6-methyl-6,7-dihydro-7,14-methanobenzo[c]pyrido[1′,2′:1,5]pyrazolo[4,3-f]azocin-5 (14H)-one] | < 0.025 |  | 
CN1C(=O)c2cccc(OC(F)F)c2[C@H]2C[C@@H]1c1nc3ccc(-c4cnc([C@]5(N)C[C@@](C)(O)C5)c(F)c4)cc3n12 [Comp. Ex #2, reference compound] |  | 85 | 0.0047
CN1C(=O)c2cccc(OC(F)F)c2[C@H]2C[C@@H]1c1nc3ccc(-c4cnc(C5(O)CCOCC5)nc4)cc3n12 [Comp. Ex #3, reference compound] |  | 70 | 0.0082
CN1C(=O)c2cccc(OC(F)F)c2[C@H]2C[C@@H]1c1nc3ccc(-c4cnc([C@]5(N)C[C@@](C)(C#N)C5)nc4)cc3n12 [Comp. Ex #5, reference compound] |  | 83 | 0.0161
CN1C(=O)c2cccc(OC(F)F)c2[C@H]2C[C@@H]1c1nc3ccc(-c4cnc([C@]5(O)C[C@@](C)(O)C5)nc4)cc3n12 [Comp. Ex #6, reference compound] |  | 82 | 0.0052
CN1C(=O)c2cccc(OC(F)F)c2[C@H]2C[C@@H]1c1nc3ccc(-c4cnc([C@]5(N)C[C@@](C)(CO)C5)nc4)cc3n12 [Comp. Ex #7, reference compound] |  | 92 | 0.0042
CN1C(=O)c2cccc(OC(F)F)c2[C@H]2C[C@@H]1c1nc3ccc(-c4cnc([C@]5(N)C[C@@](C)(C#N)C5)c(F)c4)cc3n12 [Comp. Ex #8, reference compound] |  | 80 | 0.0053
CN1C(=O)c2cccc(OC(F)F)c2C2CC1c1nn3ccc(-c4cnc(C5(N)CCC5)nc4)nc3c12 (centres unmarked) [Example 1, 12-(2-(1-aminocyclobutyl)pyrimidin-5-yl)-1-(difluoromethoxy)-6-methyl-6,7-dihydro-7,14-methanobenzo[c]pyrimido[1′,2′:1,5]pyrazolo[4,3-f]azocin-5 (14H)-one] | 0.025 to 0.1 |  | 
CN1C(=O)c2cccc(OC(F)F)c2[C@@H]2C[C@H]1c1nn3ccc(-c4cnc(C5(N)CCC5)nc4)nc3c12 [Example 2, (7S,14R)-12-(2-(1-aminocyclobutyl)pyrimidin-5-yl)-1-(difluoromethoxy)-6-methyl-6,7-dihydro-7,14-methanobenzo[c]pyrimido[1′,2′:1,5]pyrazolo[4,3-f]azocin-5 (14H)-one] | 0.1 to 1 |  | 
CN1C(=O)c2cccc(OC(F)F)c2[C@H]2C[C@@H]1c1nn3ccc(-c4cnc(C5(N)CCC5)nc4)nc3c12 [Example 3, (7R,14S)-12-(2-(1-aminocyclobutyl)pyrimidin-5-yl)-1-(difluoromethoxy)-6-methyl-6,7-dihydro-7,14-methanobenzo[c]pyrimido[1′,2′:1,5]pyrazolo[4,3-f]azocin-5 (14H)-one] | < 0.025 |  | 
CN1C(=O)c2cccc(OC(F)F)c2[C@H]2C[C@@H]1c1nn3ccc(-c4cnc(C5(O)CC(C)(C#N)C5)nc4)nc3c12 (stereo partly drawn) [Example 4, (1R,3s)-3-(5-((7R,14S)-1-(difluoromethoxy)-6-methyl-5-oxo-5,6,7,14-tetrahydro-7,14-methanobenzo[c]pyrimido[1′,2′:1,5]pyrazolo[4,3-f]azocin-12-yl)pyrimidin-2-yl)-3-hydroxy-1-methylcyclobutane-1-carbonitrile] | < 0.025 |  | 
CN1C(=O)c2cccc(OC(F)F)c2[C@H]2C[C@@H]1c1nn3ccc(-c4cnc([C@]5(C#N)C[C@@](C)(O)C5)nc4)nc3c12 [Example 5, (1r,3S)-1-(5-((7R,14S)-1-(difluoromethoxy)-6-methyl-5-oxo-5,6,7,14-tetrahydro-7,14-methanobenzo[c]pyrimido[1′,2′:1,5]pyrazolo[4,3-f]azocin-12-yl)pyrimidin-2-yl)-3-hydroxy-3-methylcyclobutane-1-carbonitrile] | < 0.025 |  | 
CN1C(=O)c2cccc(OC(F)F)c2[C@H]2C[C@@H]1c1nn3ccc(-c4cnc(C5(N)CC5)nc4)nc3c12 [Example 6, (7R,14S)-12-(2-(1-aminocyclopropyl)pyrimidin-5-yl)-1-(difluoromethoxy)-6-methyl-6,7-dihydro-7,14-methanobenzo[c]pyrimido[1′,2′:1,5]pyrazolo[4,3-f]azocin-5 (14H)-one] | < 0.025 |  | 
CN1C(=O)c2cccc(OC(F)F)c2[C@H]2C[C@@H]1c1nn3ccc(-c4cnc([C@]5(N)C[C@@](C)(C#N)C5)nc4)nc3c12 [Example 7, (1R,3s)-3-amino-3-(5-((7R,14S)-1-(difluoromethoxy)-6-methyl-5-oxo-5,6,7,14-tetrahydro-7,14-methanobenzo[c]pyrimido[1′,2′:1,5]pyrazolo[4,3-f]azocin-12-yl)pyrimidin-2-yl)-1-methylcyclobutane-1-carbonitrile] | < 0.025 |  | 
CN1C(=O)c2cccc(OC(F)F)c2[C@H]2C[C@@H]1c1nn3ccc(C4=CCC(C(C)(C)O)CC4)nc3c12 (stereo partly drawn) [Example 8, (7R,14S)-1-(difluoromethoxy)-12-(4-(2-hydroxypropan-2-yl)cyclohex-1-en-1-yl)-6-methyl-6,7-dihydro-7,14-methanobenzo[c]pyrimido[1′,2′:1,5]pyrazolo[4,3-f]azocin-5 (14H)-one] | 0.025 to 0.1 |  | 
CN1C(=O)c2cccc(OC(F)F)c2[C@H]2C[C@@H]1c1nn3ccc(-c4cnc([C@]5(N)C[C@@](C)(O)C5)nc4)nc3c12 [Example 9, (7R,14S)-12-(2-((1s,3R)-1-amino-3-hydroxy-3-methylcyclobutyl)pyrimidin-5-yl)-1-(difluoromethoxy)-6-methyl-6,7-dihydro-7,14-methanobenzo[c]pyrimido[1′,2′:1,5]pyrazolo[4,3-f]azocin-5 (14H)-one] | < 0.025 |  | 
CN1C(=O)c2cccc(OC(F)F)c2[C@H]2C[C@@H]1c1nn3ccc(-c4cnc([C@]5(N)C[C@@](C)(CO)C5)nc4)nc3c12 [Example 10, (7R,14S)-12-(2-((1s,3R)-1-amino-3-(hydroxymethyl)-3-methylcyclobutyl)pyrimidin-5-yl)-1-(difluoromethoxy)-6-methyl-6,7-dihydro-7,14-methanobenzo[c]pyrimido[1′,2′:1,5]pyrazolo[4,3-f]azocin-5 (14H)-one] | < 0.025 | 93 | 0.0127
CN1C(=O)c2cccc(OC(F)F)c2[C@H]2C[C@@H]1c1nn3ccc(-c4cnc(C(C)(C)O)nc4)nc3c12 [Example 11, (7R,14S)-1-(difluoromethoxy)-12-(2-(2-hydroxypropan-2-yl)pyrimidin-5-yl)-6-methyl-6,7-dihydro-7,14-methanobenzo[c]pyrimido[1′,2′:1,5]pyrazolo[4,3-f]azocin-5 (14H)-one] | 0.025 to 0.1 |  | 
CN1C(=O)c2cccc(OC(F)F)c2[C@H]2C[C@@H]1c1nn3ccc(-c4cnc(C5(O)CCOC5)nc4)nc3c12 (stereo partly drawn) [Example 12, (7R,14S)-1-(difluoromethoxy)-12-(2-(3-hydroxytetrahydrofuran-3-yl)pyrimidin-5-yl)-6-methyl-6,7-dihydro-7,14-methanobenzo[c]pyrimido[1′,2′:1,5]pyrazolo[4,3-f]azocin-5 (14H)-one] | 0.025 to 0.1 |  | 
CN1C(=O)c2cccc(OC(F)F)c2[C@H]2C[C@@H]1c1nn3ccc(-c4ccc(P(C)(C)=O)nc4)nc3c12 [Example 13, (7R,14S)-1-(difluoromethoxy)-12-(6-(dimethylphosphoryl)pyridin-3-yl)-6-methyl-6,7-dihydro-7,14-methanobenzo[c]pyrimido[1′,2′:1,5]pyrazolo[4,3-f]azocin-5 (14H)-one] | < 0.025 |  | 
